Patent publication US20160222014A1, “COMPOUNDS FOR REGULATING FAK AND/OR SRC PATHWAYS” (ASANA BIOSCIENCES, LLC, priority 2013, published 2016)

What was measured:
AURKB (Aurora B) enzyme = molecular target: T1, AURKB (Aurora B) enzyme (Homo sapiens, UniProt Q96GD4); assay: Aurora B HTRF assay; type: biochemical; conditions: read-out: AuroraB IC50
T1 construct: purchased Invitrogen PVR 130
Outline: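 Enzyme (5 nM final) and ULight-labelled PLK Ser137 peptide (50 nM) reacted 1 h at room temperature; a 30 μM final component was also present. Detection used EDTA-containing buffer with europium anti-phospho-PLK(Ser137) antibody at 2 nM, 1 h, then time-resolved FRET readout.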

Recombinant Src enzyme = molecular target: T2, Recombinant Src enzyme (Homo sapiens, UniProt P12931); assay: Src HTRF assay; type: biochemical
T2 construct: purchased Millipore 14-326; host or cells: Sf21 insect cells
Outline: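 Run as for the FAK HTRF assay (same buffer, supplements, compound preparation and procedure), with dasatinib included. Reaction contained 0.5 μM biotin-tagged Tyk2 synthetic peptide, 5 nM Src made in Sf21 cells, and a pH7.4-buffer-prepared component at 10 μM final.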

JAK2 = JAK2 (Homo sapiens, UniProt O60674); assay: JAK2 biochemical potency; conditions: read-out: JAK2 HTRF IC50
recombinant human FAK1 = molecular target: T3, recombinant human FAK1 (Homo sapiens, UniProt Q05397); assay: FAK1 HTRF assay; type: biochemical
T3 construct: fused on or other part: N-terminal 6xHis tag
Outline: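 IC50 values derive from HTRF % inhibition (ratio 665/620 nm, Eu–anti-phosphotyrosine 0.1 nM, SA-APC 12 nM). The kinase step ran 45 min at room temperature, pairing 10 nM His-FAK1(692–end) from baculovirus with 0.5 μM gastrin Tyr87 biotin-peptide and a reagent at 10 μM final, pH 7.4. Compound dilutions began at 10 μM.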

[1] = molecular target: T4, FAK phosphorylated at Y397 in HEK-FAK cell line overexpressing human FL FAK protein (Homo sapiens, UniProt Q05397); assay: Cell based assay, Phospho-FAK ELISA; conditions: HEK stb; read-out: pFAK EC50 (μM) HEK stb
T4 construct: expressed in transfected cells
Outline: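 Stable HEK293 line overexpressing full-length human FAK, kept under 0.8 mg/mL Zeocin. In lysates, FAK Y397 autophosphorylation was measured by sandwich ELISA: total-FAK capture antibody, biotinylated pY397-specific detection antibody, streptavidin-HRP with TMB substrate.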

T1 sequence (Q96GD4 whole entry): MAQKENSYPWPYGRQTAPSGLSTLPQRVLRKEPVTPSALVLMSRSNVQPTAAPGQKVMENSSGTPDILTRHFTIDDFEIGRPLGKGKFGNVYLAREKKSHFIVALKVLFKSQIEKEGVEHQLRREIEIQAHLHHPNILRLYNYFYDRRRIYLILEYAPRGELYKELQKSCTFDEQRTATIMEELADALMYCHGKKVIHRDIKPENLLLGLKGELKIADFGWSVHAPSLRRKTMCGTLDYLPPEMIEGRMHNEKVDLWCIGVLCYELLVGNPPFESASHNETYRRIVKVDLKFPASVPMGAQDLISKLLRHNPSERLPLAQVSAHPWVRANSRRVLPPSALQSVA
Sequence of JAK2 (O60674 whole entry, species assumed): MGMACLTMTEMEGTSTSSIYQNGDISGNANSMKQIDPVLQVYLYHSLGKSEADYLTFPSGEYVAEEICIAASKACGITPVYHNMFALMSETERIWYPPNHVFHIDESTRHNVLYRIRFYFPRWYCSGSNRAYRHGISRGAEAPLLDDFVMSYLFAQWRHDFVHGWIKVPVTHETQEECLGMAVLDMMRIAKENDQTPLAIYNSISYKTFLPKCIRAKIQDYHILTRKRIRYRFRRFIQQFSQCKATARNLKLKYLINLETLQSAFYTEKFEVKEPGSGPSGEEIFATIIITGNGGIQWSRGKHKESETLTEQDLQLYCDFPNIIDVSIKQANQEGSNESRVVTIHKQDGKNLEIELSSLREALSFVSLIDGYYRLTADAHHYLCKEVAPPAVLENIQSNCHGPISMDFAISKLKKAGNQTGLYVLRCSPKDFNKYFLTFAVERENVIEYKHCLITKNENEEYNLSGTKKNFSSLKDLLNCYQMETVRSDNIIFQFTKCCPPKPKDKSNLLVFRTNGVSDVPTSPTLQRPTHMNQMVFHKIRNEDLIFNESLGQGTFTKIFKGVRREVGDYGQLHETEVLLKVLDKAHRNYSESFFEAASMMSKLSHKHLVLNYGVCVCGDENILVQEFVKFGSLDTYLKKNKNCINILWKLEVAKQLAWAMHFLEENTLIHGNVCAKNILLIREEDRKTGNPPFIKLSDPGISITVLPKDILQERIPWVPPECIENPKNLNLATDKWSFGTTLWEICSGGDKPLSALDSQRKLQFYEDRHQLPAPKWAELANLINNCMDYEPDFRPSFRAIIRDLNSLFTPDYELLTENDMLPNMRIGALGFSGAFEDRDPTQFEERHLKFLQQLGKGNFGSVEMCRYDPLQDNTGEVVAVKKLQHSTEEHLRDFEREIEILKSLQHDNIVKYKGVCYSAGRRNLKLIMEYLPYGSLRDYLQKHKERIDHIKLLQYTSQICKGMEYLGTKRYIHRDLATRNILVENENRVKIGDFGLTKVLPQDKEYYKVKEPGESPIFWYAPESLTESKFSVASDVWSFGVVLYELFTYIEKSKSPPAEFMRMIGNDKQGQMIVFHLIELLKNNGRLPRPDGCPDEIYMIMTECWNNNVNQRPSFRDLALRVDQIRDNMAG
T3 sequence (Q05397 422-680 limits assumed): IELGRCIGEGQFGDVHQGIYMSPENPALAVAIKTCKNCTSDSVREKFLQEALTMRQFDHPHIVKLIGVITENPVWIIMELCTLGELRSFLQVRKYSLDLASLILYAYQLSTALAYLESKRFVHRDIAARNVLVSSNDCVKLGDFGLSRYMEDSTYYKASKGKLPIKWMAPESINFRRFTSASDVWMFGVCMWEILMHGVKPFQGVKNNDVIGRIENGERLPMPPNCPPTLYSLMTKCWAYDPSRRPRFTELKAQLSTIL
T2 sequence (P12931 whole entry): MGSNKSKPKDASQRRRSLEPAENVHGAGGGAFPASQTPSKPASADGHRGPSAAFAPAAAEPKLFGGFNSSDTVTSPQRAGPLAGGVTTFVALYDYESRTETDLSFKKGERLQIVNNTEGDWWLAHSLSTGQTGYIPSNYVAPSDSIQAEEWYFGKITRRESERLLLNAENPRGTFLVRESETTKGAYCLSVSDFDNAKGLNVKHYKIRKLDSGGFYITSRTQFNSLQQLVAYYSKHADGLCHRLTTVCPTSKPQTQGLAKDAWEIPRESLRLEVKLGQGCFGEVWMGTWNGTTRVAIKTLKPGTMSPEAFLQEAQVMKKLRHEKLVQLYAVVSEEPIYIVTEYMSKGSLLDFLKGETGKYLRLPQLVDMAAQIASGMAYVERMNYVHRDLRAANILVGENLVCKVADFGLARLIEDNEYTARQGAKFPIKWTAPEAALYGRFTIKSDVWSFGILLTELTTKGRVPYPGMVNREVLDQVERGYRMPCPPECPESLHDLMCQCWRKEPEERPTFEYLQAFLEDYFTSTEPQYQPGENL
T4 sequence (Q05397 whole entry): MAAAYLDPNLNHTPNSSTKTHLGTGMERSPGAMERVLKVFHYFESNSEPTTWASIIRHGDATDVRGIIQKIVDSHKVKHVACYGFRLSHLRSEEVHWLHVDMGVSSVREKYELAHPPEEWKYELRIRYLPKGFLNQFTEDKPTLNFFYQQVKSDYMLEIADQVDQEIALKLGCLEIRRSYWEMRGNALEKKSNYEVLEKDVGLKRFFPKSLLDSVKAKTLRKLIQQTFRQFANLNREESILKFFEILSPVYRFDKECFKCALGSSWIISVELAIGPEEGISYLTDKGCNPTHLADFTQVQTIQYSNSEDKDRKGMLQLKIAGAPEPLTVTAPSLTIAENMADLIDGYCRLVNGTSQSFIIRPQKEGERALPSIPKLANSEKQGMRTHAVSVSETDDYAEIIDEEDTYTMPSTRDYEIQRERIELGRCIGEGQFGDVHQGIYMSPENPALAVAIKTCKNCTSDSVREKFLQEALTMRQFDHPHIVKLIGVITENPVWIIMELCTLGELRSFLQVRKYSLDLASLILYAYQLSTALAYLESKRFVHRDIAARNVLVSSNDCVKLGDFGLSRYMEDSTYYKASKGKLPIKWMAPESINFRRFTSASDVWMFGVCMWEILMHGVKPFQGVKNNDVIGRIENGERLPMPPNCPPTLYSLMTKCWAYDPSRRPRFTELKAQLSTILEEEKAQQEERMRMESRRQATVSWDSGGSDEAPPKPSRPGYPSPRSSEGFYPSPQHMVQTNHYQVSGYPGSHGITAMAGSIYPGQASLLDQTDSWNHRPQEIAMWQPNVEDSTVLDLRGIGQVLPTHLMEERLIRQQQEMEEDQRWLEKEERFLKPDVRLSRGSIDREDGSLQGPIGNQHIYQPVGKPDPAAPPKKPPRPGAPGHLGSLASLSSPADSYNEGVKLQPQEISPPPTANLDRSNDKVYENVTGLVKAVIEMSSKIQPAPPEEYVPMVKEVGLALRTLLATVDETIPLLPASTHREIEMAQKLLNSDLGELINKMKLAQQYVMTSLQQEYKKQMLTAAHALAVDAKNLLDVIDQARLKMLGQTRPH

IC50 (AURKB (Aurora B) enzyme) | IC50 (Recombinant Src enzyme) | IC50 (JAK2) | IC50 (recombinant human FAK1) | EC50 [1] | Compound
– | > 1000 nM | > 1000 nM | < 20 nM | – | COc1cc(N2CCN(CCO)CC2)ccc1Nc1ncc2ccn(S(=O)(=O)c3cccc4cccnc34)c2n1 [Example 347]
< 20 nM | < 20 nM | < 20 nM | – | – | N#Cc1ccccc1S(=O)(=O)n1ncc2cnc(Nc3ccc4c(c3)CCC(=O)N4)nc21 [Example 220]
< 20 nM | > 1000 nM | > 1000 nM | < 20 nM | – | COc1cc(N2CCC(O)CC2)ccc1Nc1ncc2ccn(S(=O)(=O)c3cccc4cccnc34)c2n1 [Example 356]
< 20 nM | – | < 20 nM | < 20 nM | – | C[C@@H]1CN(c2ccc(Nc3ncc4ccn(Cc5ccccc5N(C)S(C)(=O)=O)c4n3)cc2)CCN1 [Example 448, (R)—N-methyl-N-(2-((2-((4-(3-methylpiperazin-1-yl)phenyl)amino)-7H-pyrrolo[2,3-d]pyrimidin-7-yl)methyl)phenyl)methanesulfonamide]
– | – | < 20 nM | – | > 1 µM | CN(c1ccccc1Cn1ccc2cnc(Nc3ccc(OC4CNC4)cc3)nc21)S(C)(=O)=O [Example 515]
– | > 1000 nM | > 1000 nM | < 20 nM | – | COc1cc(N2CCNCC2)ccc1Nc1ncc2ccn(Cc3cccnc3N(C)S(C)(=O)=O)c2n1 [Example 337]
– | < 20 nM | < 20 nM | < 20 nM | – | CN(c1ccccc1Cn1ccc2cnc(Nc3ccc(N4CCNCC4)cc3)nc21)S(C)(=O)=O [Example 214]
< 20 nM | < 20 nM | < 20 nM | < 20 nM | – | O=S(=O)(c1cccc2cccnc12)n1ccc2cnc(Nc3ccc(N4CCN(CCO)CC4)cc3)nc21 [Example 311]
< 20 nM | – | < 20 nM | – | > 1 µM | C[C@H]1CN(c2ccc(Nc3ncc4ccn(S(=O)(=O)c5cccc(C#N)c5)c4n3)cc2)CCN1 [Example 306]
– | > 1000 nM | > 1000 nM | < 20 nM | – | COc1cc(N2CCNCC2)ccc1Nc1cc2c(ccn2S(=O)(=O)c2ccccc2C#N)cn1 [Example 348]
– | > 1000 nM | > 1000 nM | < 20 nM | – | COc1cc(N2CCNCC2)ccc1Nc1ncc2ccn(S(=O)(=O)c3ccccc3C#N)c2n1 [Example 336]
< 20 nM | > 1000 nM | > 1000 nM | < 20 nM | – | O=S(=O)(c1cccc2cccnc12)n1ccc2cnc(Nc3ccc(N4CC5CC4CN5)cc3)cc21 (stereo not shown) [Example 329]
< 20 nM | > 1000 nM | > 1000 nM | < 20 nM | – | COc1cc(N2CCNCC2)ccc1Nc1ncc2ccn(S(=O)(=O)c3cccc4cccnc34)c2n1 [Example 327]
< 20 nM | – | < 20 nM | – | > 1 µM | C[C@@H]1CN(c2ccc(Nc3ncc4ccn(S(=O)(=O)c5ccccc5C#N)c4n3)cc2)CCN1 [Example 243]
< 20 nM | – | > 1000 nM | < 20 nM | – | COc1cc(Nc2cc3c(ccn3S(=O)(=O)c3cccc4cccnc34)cn2)ccc1N1CCNCC1 [Example 328]
< 20 nM | – | < 20 nM | < 20 nM | – | O=S(=O)(c1cccc2cccnc12)n1ccc2cnc(Nc3ccc(N4CC5CC4CN5)cc3)nc21 (stereo not shown) [Example 246]
< 20 nM | – | < 20 nM | < 20 nM | – | Cc1cc(S(=O)(=O)n2ccc3cnc(Nc4ccc(N5CCNCC5)cc4)nc32)c2ncccc2c1 [Example 357]
> 1000 nM | > 1000 nM | > 1000 nM | < 20 nM | – | COc1cc(N2CCNCC2)ccc1Nc1ncc2c(n1)N(S(=O)(=O)c1cccc3cccnc13)CC2(C)C [Example 446]
< 20 nM | – | < 20 nM | < 20 nM | – | CN(C)C1CCN(c2ccc(Nc3ncc4ccn(Cc5ccccc5N(C)S(C)(=O)=O)c4n3)cc2)CC1 [Example 468]
< 20 nM | – | < 20 nM | < 20 nM | – | C[C@H]1CN(c2ccc(Nc3ncc4ccn(Cc5ccccc5N(C)S(C)(=O)=O)c4n3)cc2)CCN1 [Example 467]
< 20 nM | – | < 20 nM | < 20 nM | – | CN(c1ncccc1Cn1ccc2cnc(Nc3ccc4c(c3)CC(=O)N4)nc21)S(C)(=O)=O [Example 304]
– | – | < 20 nM | – | > 1 µM | C[C@H]1CNCCN1c1ccc(Nc2ncc3ccn(Cc4cccnc4N(C)S(C)(=O)=O)c3n2)cc1 [Example 320]
< 20 nM | – | < 20 nM | < 20 nM | – | COc1ccccc1S(=O)(=O)n1ccc2cnc(Nc3ccc(N4CCNCC4)cc3)nc21 [Example 333]
< 20 nM | – | < 20 nM | < 20 nM | – | O=S(=O)(c1cccc2cccnc12)n1ccc2cnc(Nc3ccc(CN4CCC(F)(F)CC4)cc3)nc21 [Example 248]
< 20 nM | – | < 20 nM | < 20 nM | – | N#Cc1ccccc1S(=O)(=O)n1ccc2cnc(Nc3ccc(N4CCNCC4)cc3)cc21 [Example 314]

Second part, the molecule before the results:

Compound | IC50 (AURKB (Aurora B) enzyme) | IC50 (Recombinant Src enzyme) | IC50 (JAK2) | IC50 (recombinant human FAK1) | EC50 [1]
Cc1nn(Cc2ccccc2OC(F)F)c2cc(Nc3ccc4c(c3)CCC(=O)N4)ncc12 [Example 80] | > 1000 nM | > 1000 nM | > 1000 nM | – | –
O=S(=O)(c1cccc2cccnc12)n1ccc2cnc(Nc3ccc(N4CCNCC4)c(F)c3)nc21 [Example 194] | < 20 nM | < 20 nM | < 20 nM | < 20 nM | –
CN(C)S(=O)(=O)c1ccccc1Cn1ncc2cnc(Nc3ccc4c(c3)CCC(=O)N4)cc21 [Example 204] | < 20 nM | – | < 20 nM | < 20 nM | > 1 µM
Cc1cc(Nc2ncc3ccn(Cc4cccnc4N(C)S(C)(=O)=O)c3n2)ccc1N1CCNCC1 [Example 197] | < 20 nM | < 20 nM | < 20 nM | – | –
CN(C)S(=O)(=O)c1ccccc1Cn1ncc2cnc(Nc3ccc(N4CCNCC4)cc3)cc21 [Example 208] | – | – | < 20 nM | – | > 1 µM
CC(=O)Nc1cccc(Nc2cc3c(cn2)c(C)nn3Cc2ccccc2OC(F)F)c1 [Example 78] | – | > 1000 nM | > 1000 nM | > 1000 nM | –
CN(c1ccccc1Cn1ccc2cnc(Nc3ccc(N4CCOCC4)cc3)nc21)S(C)(=O)=O [Example 111] | – | – | < 20 nM | < 20 nM | > 1 µM
CC(=O)Nc1ccc(Nc2cc3c(cn2)cnn3Cc2cccnc2N(C)S(C)(=O)=O)cc1 [Example 66] | > 1000 nM | > 1000 nM | > 1000 nM | – | –
O=S(=O)(c1ccccc1OC(F)(F)F)n1ccc2cnc(Nc3ccc(N4CCOCC4)cc3)cc21 [Example 113] | < 20 nM | > 1000 nM | > 1000 nM | – | –
CC(=O)Nc1ccc(Nc2cc3c(ccn3S(=O)(=O)c3cccc(OC(F)(F)F)c3)cn2)cc1 [Example 54] | – | > 1000 nM | > 1000 nM | – | –
CC(=O)Nc1cccc(Nc2cc3c(ccn3S(=O)(=O)c3cccc(OC(F)(F)F)c3)cn2)c1 [Example 55] | > 1000 nM | > 1000 nM | > 1000 nM | – | –
N#Cc1ccccc1S(=O)(=O)n1ccc2cnc(Nc3ccc(N4CCNCC4)cc3)nc21 [Example 185] | < 20 nM | – | < 20 nM | < 20 nM | > 1 µM
CN(C)Cc1ccc(Nc2ncc3ccn(S(=O)(=O)c4cccc5cccnc45)c3n2)cc1 [Example 205] | < 20 nM | – | < 20 nM | < 20 nM | –
CN(c1ncccc1Cn1ccc2cnc(Nc3ccc4c(c3)CCC(=O)N4)nc21)S(C)(=O)=O [Example 5] | < 20 nM | < 20 nM | < 20 nM | < 20 nM | –
CC(=O)Nc1ccc(Nc2cc3c(cn2)c(C)nn3Cc2ccccc2OC(F)F)cc1 [Example 81] | – | > 1000 nM | > 1000 nM | > 1000 nM | –
CN(c1ncccc1Cn1ccc2cnc(Nc3ccc(C4=CCNCC4)cc3)nc21)S(C)(=O)=O [Example 206] | < 20 nM | < 20 nM | < 20 nM | – | –
CC(=O)Nc1cccc(Nc2cc3c(ccn3S(=O)(=O)c3ccccc3OC(F)(F)F)cn2)c1 [Example 58] | > 1000 nM | > 1000 nM | > 1000 nM | – | –
C[C@@H]1CN(c2ccc(Nc3ncc4ccn(S(=O)(=O)c5cccc6cccnc56)c4n3)cc2)CCN1 [Example 213] | < 20 nM | < 20 nM | < 20 nM | < 20 nM | –
O=S(=O)(c1ccccc1OC(F)F)n1ccc2cnc(Nc3ccc(N4CCNCC4)cc3)nc21 [Example 184] | < 20 nM | – | < 20 nM | < 20 nM | –
O=c1[nH]c2ccc(Nc3cc4c(ccn4S(=O)(=O)c4ccccc4OC(F)(F)F)cn3)cc2[nH]1 [Example 118] | < 20 nM | > 1000 nM | > 1000 nM | < 20 nM | –
